Data from patent US11000586B2, “Adjuvant composition, vaccine composition containing the same, and method for producing both of them” (TERUMO KABUSHIKI KAISHA, priority 2013, dated 2021).

B1: OVA: OVA protein (EndoFit Ovalbumin: from InvivoGen), model antigen (protein, UniProt P01012 2-386, looked up)
Ovalbumin: GSIGAASMEFCFDVFKELKVHHANENIFYCPIAIMSALAMVYLGAKDSTRTQINKVVRFDKLPGFGDSIEAQCGTSVNVHSSLRDILNQITKPNDVYSFSLASRLYAEERYPILPEYLQCVKELYRGGLEPINFQTAADQARELINSWVESQTNGIIRNVLQPSSVDSQTAMVLVNAIVFKGLWEKAFKDEDTQAMPFRVTEQESKPVQMMYQIGLFRVASMASEKMKILELPFASGTMSMLVLLPDEVSGLEQLESIINFEKLTEWTSSNVMEERKIKVYLPRMKMEEKYNLTSVLMAMGITDVFSSSANLSGISSAESLKISQAVHAAHAEINEAGREVVGSAEAGVDAASVSEEFRADHPFLFCIKHIATNAVLFFGRCVSP

What was measured:
[1] = Release test: measurement of leakage
Method: The term “Membrane disruptive function” denotes the function to bring about release in the release test. The release test described in this specification is a test comprising or consisting of adding liposomes (dispersion) encapsulating an aqueous solution containing a quenching substance and a fluorescent substance and a dispersion of a sample for evaluation to a properly pH-adjusted aqueous solution, incubating the resulting aqueous solution at 37° C. for 90 minutes or 30 minutes, and measuring the fluorescence intensity of the incubated aqueous solution. This method permits the measurement of the amount of the fluorescent substance which has been released from the liposomes. […] The release test will be described in more detail in the Examples.
The evaluation was performed with the help of EYPC liposomes which contain Pyranine (as a fluorescent substance) and DPX (as a quencher).
EYPC (3000 nmol) dissolved in chloroform was measured and placed in a 10-mL eggplant-shaped flask, and the EYPC was made into thin film with a rotary evaporator. To the flask was added a Pyranine solution (500 μL), which is composed of Pyranine (35 mM), DPX (50 mM), and MES (25 mM), and has pH 7.4. The thin film in the flask was dispersed with the help of an ultrasonic irradiator (USC-J). The resulting dispersion was passed through a porous polycarbonate film having a pore diameter of 100 nm with the help of an extruder, so as to make the particle size uniform. The resulting dispersion underwent substitution of the outer aqueous layer with the help of MES Buffer and G100 column. Thus, there was obtained a dispersion of EYPC liposomes encapsulating the fluorescent substance. The concentration of the lipid was determined with the help of phospholipid C-test Wako, and then it was adjusted with MES Buffer so that phospholipid became 1.0 mmol/L.
The dispersion of EYPC liposomes (with its concentration adjusted) in an amount of 20 μL and the dispersion of a sample for evaluation in an amount of 20 μL were added to MES Buffer (with its pH adjusted) in an amount of 2960 μL. The resulting mixture underwent incubation at 37° C. for 90 or 30 minutes. Values resulting from incubation for 90 minutes are adopted in the Examples, unless otherwise indicated.
The leakage was calculated assuming that the sheer dispersion of EYPC liposomes has 0% and the dispersion of EYPC liposomes incorporated with 30 μL of 10-fold diluted Triton-X100 has 100%. Specifically, the leakage was calculated from the following formula, L denotes the intensity of fluorescence measured, L0 denotes the intensity of fluorescence of the sheer dispersion of EYPC liposomes containing the fluorescent substance, and L100 denotes the intensity of fluorescence of the dispersion of EYPC liposomes incorporated with Triton-X100.

CD80 = experiment: Evaluation of stimulus to activate innate immune system: expression of CD80 in cultured mice spleen cells (flow cytometry); conditions: for CD80 MFI, Amphipathic substance: amphipathic substance alone; for fluorescence intensity of CD80PE compared with PBS: solution (5 μL) of sample added alone: peptide, OVA 800 μg/mL, DLPC 1000 nmol/mL, deoxycholic acid 1600 nmol/mL, FIG. 8(B)
Method: The evaluation of stimulus to activate innate immune system was performed as follows.
A spleen was harvested from C57BL/6N mice. The harvested spleen was injected with 500 μL of collagenase solution, 2 mg/mL (prepared with RPMI medium) followed by incubation at 37° C. for 30 minutes. The spleen was made into cell suspension by treatment with BD Falcon cell strainer. The cells underwent hemolysis with RBC lysis buffer, followed by washing with RPMI medium. The cells were dispersed into RPMI medium, and the number of cells was counted. The cells were used for the subsequent procedure.
The cells were inoculated into a 96-well dish such that 1.0×10^6 cells/100 μL. The cell dispersion was given 100 μL of RPMI medium containing a dispersion of different kind, followed by incubation overnight. These procedures were performed by using serum-free RPMI medium.
The cells were recovered and washed with BD stain buffer. Then, the cells underwent incubation together with Anti-CD11cFITC, 0.25 μg/100 μL (4° C. for 30 minutes), so that the cells were stained. After washing, the cells underwent again incubation with Anti-CD80PE, Anti-CD86PE, or Anti-CD40PE, 0.25 μg/100 μL (4° C. for 30 minutes), so that the cells were stained. After washing at least more than three times, the cells were evaluated by using the flow cytometer (Cytomics FC500, Software: CXP software ver. 2).

[2] = test system: CTL (IFNγ-secreting cells/total CD8 positive cells); experiment: Evaluation of CTL induction rate, ICS method, after immunization of mice; format: in vivo, C57BL/6N mice; parameters: key to CTL induction rate, Low MPL / CTL induction rate, High MPL: ratio of IFNγ-secreting cells to total CD8 positive cells; conditions: for CTL induction rate, High MPL: high MPL (22.7); for CTL induction rate, High MPL / CTL induction rate, Low MPL: n=3; for CTL induction rate, Low MPL: low MPL (0.0227)
Method: Administration (100 μL/head) was performed by subcutaneous injection at one position on the back under anesthesia. […] For evaluation of cell-mediated immunity, administration was performed once and the assay was performed seven days after administration. For evaluation of humoral immunity, administration was performed twice. The second administration was performed 14 days after the first administration, and assay was performed seven days after the second administration.
The mice were sacrificed on the seventh day after the last administration and had its spleen harvested. The spleen was given RPMI medium (3.0 mL) containing 10% serum and then treated by the BD Falcon cell strainer. Thus there was obtained a suspension of cells. […] The cells were dispersed into RPMI medium containing 10% serum. The number of cells was counted. Thus there was obtained a dispersion of spleen cells.
For restimulation of the antigen, 10% serum-containing RPMI medium (100 μL) containing OVA peptide (40 μg/mL) was added, followed by incubation for three hours. Then, BD GolgiPlug was added such that its concentration was 0.2 μL/100 μL. Cell culture was performed overnight. In the case where the restimulation was not given, a 10% serum-containing RPMI medium not containing OVA peptide was used.
After washing, the cells were stained with Anti-CD8aPE (at 4° C. for 30 minutes), followed by washing again. Then the cells were permeabilized with Cytofix/Cytoperm. After washing, the cells were stained with Anti-IFNγFITC (at 4° C. for 30 minutes). […] CTL induction rate was calculated in terms of the ratio between the IFNγ secreting cells and the total CD8 positive cells.
It is known that MPL activates innate immune system and functions as an adjuvant even when used alone. It is also known that MPL induces cell-mediated immunity. Thus, a comparison was made as to the induction of cell-mediated immunity between MPL used alone and MPL used in combination with a pH-sensitive carrier in the form of the adjuvant composition. Each of the MPL and the adjuvant composition is administered together with an antigen. […] The above-mentioned solution or dispersion was subcutaneously administered once to the back of C57BL/6N mice, and the CTL induction rate was obtained according to the ICS method. The CTL induction rate is expressed in terms of the ratio of the IFNγ-secreting cells to the total CD8 positive cells in a specific area which is hardly affected by dead cells (IFNγ-secreting cells/total CD8 positive cells).

[3] = Table 2, pH-sensitive substance alone
[4] = antigen peptide 3.2 μg, DLPC, deoxycholic acid (160 nmol), subcutaneous once
[5] = antigen peptide 16 μg, DLPC, deoxycholic acid (160 nmol), subcutaneous once
[6] = antigen peptide 80 μg, DLPC, deoxycholic acid (160 nmol), subcutaneous once
[7] = antigen peptide 400 μg, DLPC, deoxycholic acid (160 nmol), subcutaneous once

| Molecule | leakage, Alone, pH 5.0 ([1]; Table 1, substance alone) | leakage, Alone, pH 7.4 ([1]; Table 1, substance alone) | CD80 MFI, Amphipathic substance (CD80) | leakage, Alone, pH 5.0 [1, 3] | leakage, Alone, pH 7.4 [1, 3] | other results |
| --- | --- | --- | --- | --- | --- | --- |
| sorbitan oleic acid ester [Span 80] | 18.1 ± 1.0% | 6.1 ± 0.6% | 39.6 ± 1.8% | – | – | – |
| CCCCCCCCCCCC(=O)OC[C@H](COP(=O)([O-])OCC[N+](C)(C)C)OC(=O)CCCCCCCCCCC [DLPC, 1,2-dilauroyl-sn-glycero-3-phosphatidylcholine] | 5.5 ± 0.9% | 1.8 ± 1.2% | 38.5 ± 2.9% | – | – | fluorescence intensity of CD80PE compared with PBS (CD80): remained unchanged from that in the case where PBS was added |
| C[C@H](CCC(=O)O)[C@H]1CC[C@H]2[C@@H]3C[C@H](O)[C@@H]4C[C@H](O)CC[C@]4(C)[C@H]3CC[C@]12C [Hyodeoxycholic acid] | – | – | – | 12.6 ± 0.4% | 4.2 ± 0.9% | – |
| C[C@H](CCC(=O)O)[C@H]1CC[C@H]2[C@@H]3[C@H](O)C[C@@H]4C[C@H](O)CC[C@]4(C)[C@H]3CC[C@]12C [Chenodeoxycholic acid] | – | – | – | 14.1 ± 0.9% | 0.7 ± 0.5% | – |
| CCCCCCCCCC(=O)OC[C@H](COP(=O)([O-])OCC[N+](C)(C)C)OC(=O)CCCCCCCCC [DDPC, 1,2-didecanoyl-sn-glycero-3-phosphatidylcholine] | 37.1 ± 1.3% | 17.4 ± 0.1% | 36.5 ± 1.1% | – | – | – |
| Cc1c(C)c2c(c(C)c1O)CCC(C)(CCCC(C)CCCC(C)CCCC(C)C)O2 (racemic) [α-tocopherol, DL-α-tocopherol] | 10.6 ± 1.3% | 5.5 ± 0.3% | 43.8 ± 4.9% | – | – | – |
| CC1(C)[C@@H](O[C@H]2O[C@H](C(=O)O)[C@@H](O)[C@H](O)[C@H]2O[C@@H]2O[C@H](C(=O)O)[C@@H](O)[C@H](O)[C@H]2O)CC[C@]2(C)[C@H]3C(=O)C=C4[C@@H]5C[C@@](C)(C(=O)O)CC[C@]5(C)CC[C@@]4(C)[C@]3(C)CC[C@@H]12 [Glycyrrhizinic acid] | – | – | – | 16.7 ± 2.9% | 4.2 ± 1.2% | – |
| Monophosphoryl lipid A [MPL alone] | – | – | – | – | – | leakage at a low pH value compared with PBS alone ([1]; MPL (dispersed in PBS or DMSO) in an amount equivalent to MPL content 0.227, FIG. 9(A)): equivalent to that in the case where PBS was used alone; CTL induction rate (%), Adjuvant composition (with antigen not restimulated) ([2]; DLPC with pH-sensitive compound 160 nmol, MPL content 0.227, OVA (80 μg), dispersion, n=1, antigen not restimulated): 0.14%; CTL induction rate (%), Adjuvant composition ([2]; DLPC with pH-sensitive compound 160 nmol, MPL content 0.227, OVA (80 μg), dispersion, n=1, antigen restimulated): 0.25%; CTL induction rate by adjuvant composition (%), Antigen: OVA ([2]; antigen OVA (80 μg), DLPC, MPL content 0.227, deoxycholic acid amount (nmol) varied, dispersion, n=1): 0.18%; CTL induction rate by adjuvant composition (%), Antigen: peptide ([2]; antigen peptide (80 μg), DLPC, MPL content 0.227, deoxycholic acid amount (nmol) varied, dispersion, n=1): 0.22%; CTL induction rate ([2]; antigen peptide (80 μg), MPL content 0.227 or equivalent, DLPC, deoxycholic acid (160 nmol), subcutaneous once, FIGS. 3 and 4): 0.27%; CTL induction rate, High MPL [2, 4]: 0.45; CTL induction rate, High MPL [2, 5]: 0.36; CTL induction rate, High MPL [2, 6]: 0.37; CTL induction rate, High MPL [2, 7]: 0.58; CTL induction rate, Low MPL [2, 4]: 0.14; CTL induction rate, Low MPL [2, 5]: 0.31; CTL induction rate, Low MPL [2, 6]: 0.26; CTL induction rate, Low MPL [2, 7]: 0.46; CTL induction rate (%), Amphipathic substance-MPL ([2]; mixed thin film of amphipathic substance (100 nmol) and MPL (0.227) dispersed in antigen solution, OVA (80 μg), n=1): 0.20% |
| CCCCCCCCCCCC(=O)OCCOCCOCCOCCOCCOCCOCCOCCOCCOCCOCCOCCOCCOCCOCCOCCOCCOCCOCCOCCOCC(OCCOCCOCCOCCOCCOCCOCCOCCOCCOCCOCCOCCOCCOCCOCCOCCOCCOCCOCCOCCO)C1OCC(OCCOCCOCCOCCOCCOCCOCCOCCOCCOCCOCCOCCOCCOCCOCCOCCOCCOCCOCCOCCO)C1OCCOCCOCCOCCOCCOCCOCCOCCOCCOCCOCCOCCOCCOCCOCCOCCOCCOCCOCCOCCO (stereo not shown) [Tween 20, polyoxyethylene sorbitan monolaurate ester] | 74.0 ± 2.0% | 70.4 ± 3.9% | 38.0 ± 3.2% | – | – | – |
| CC(CCC(=O)NCC(=O)O)C1CCC2C3CCC4CC(O)CCC4(C)C3CC(O)C12C (stereo not shown) [Glycodeoxycholic acid] | – | – | – | 9.8 ± 0.8% | 1.9 ± 1.2% | – |
| B1 | – | – | – | – | – | fluorescence intensity of CD80PE compared with PBS (CD80): remained unchanged from that in the case where PBS was added |
